Legend:
[1] = system: Human dermal microvessel endothelial cells (HDMEC); experiment: In vitro endothelial cell migration assay (FGF-2 induced, transwell); type: cell-based; settings: for concentration maximally effective in inhibiting endothelial cell migration: HDMEC migration in response to FGF-2
Experimental: Human dermal microvessel endothelial cells (HDMEC) were isolated by the procedure of Richard et al., Exp. Cell Res. 240:1–6 (1998). The cells were cultured in Vitrogen precoated dishes, and maintained in EBM (Clonetics Corp, San Diego, Calif.) containing 20% fetal bovine serum (FBS), 1 mg/ml hydrocortisone acetate, 5×10^−5 M dibutyryl-cAMP, 200 U/ml penicillin, 100 U/ml streptomycin, 250 mg/ml amphotericin and 2–5 ng/ml VEGF. Murine melanoma B16F10 and murine Lewis lung carcinoma cells were obtained from the ATCC, and were maintained in Dulbecco's Modified Eagle Media (DMEM) supplemented with 10% FBS, […] penicillin, 50 U/ml streptomycin, and 2 mM glutamine (supplemented DMEM). Mink lung epithelial cells (MLECs-Clone 32) that have been stably transfected with an 800 bp fragment of the plasminogen activator inhibitor-1 (PAI-1) promoter fused to the firefly luciferase reporter gene were kindly provided by Dr. Daniel Rifkin (Abe, M. et al., Anal. Biochem. 216:276–284, 1994). The transfected MLECs were maintained in supplemented DMEM.
Cells at passage 7–10 were serum-starved and maintained in EBM with 0.1% BSA (control media) for 20 hours before trypsinization to harvest the cells. Cells were washed in EBM twice and resuspended in control media at a concentration of 1×10^6 cells/ml. […] of cells were packed down and kept frozen. They were lysed and serially diluted by CyQuant reagent (Molecular Probe, Eugene, Oreg.) to be used for standard curve construction.
Transwell membrane (24-well polycarbonate membrane, […] from Corning Costar Corporation, Cambridge, Mass.) coated with Vitrogen (30 mg/ml, Invitrogen) on both sides was used for chemotactic migration experiments. Coated transwells were inverted, […] of cell suspension applied to the top of the membrane and covered by the bottom plate carefully so that the cell suspension stayed on top of the membrane. The cells were allowed to adhere to the coated membrane for two hours in an incubator at 37° C. with 5% CO2. After the adhesion incubation, the plates were re-inverted, the bottom wells were filled with 0.4 ml control media and the top wells were filled with 0.1 ml control media containing testing reagents. The plate was returned to the incubator for 3.5 hours for the cells to migrate. At the end of the incubation, the transwells were washed in PBS and the cells on the […] of the membrane (unmigrated cells) were wiped away with a cotton swab. The membranes were cut out by scalpel and placed into 96-well plates and frozen at −80° C. overnight. […] Fluorescence reading was done 16 hours later with a SpectraFluor plate reader with excitation at 485 nm and emission at […]. The number of cells migrated was then calculated based on the standard curve.

B16F10 melanoma = experiment: Primary tumor growth assay, B16F10 melanoma; type: in vivo, C57BL/6 mice; settings: for inhibition of B16F10 tumor growth: twelfth day of treatment
Experimental: The proteins for injection were mixed with Polymyxin B-Agarose (Sigma) for 30 minutes at room temperature to remove endotoxin. The endotoxin levels were less than 0.05 EU/mg as determined using the QCL-1000 assay kit (Biowhittaker, Walkersville, Md.). Proteins were filter-sterilized and the protein concentration was determined prior to injection.
(§1) Five to eight week old C57BL/6 mice (Taconic, Germantown, N.Y.) were acclimated, caged in groups of four or less and their backs were shaved. Cultured B16F10 melanoma or Lewis lung carcinoma cells (1×10^6) were inoculated subcutaneously on the back of each mouse. Tumors were measured with a dial-caliper and the volumes were determined using the formula width^2×length×0.52. The treatment began 4 days after inoculation of the tumor cells. […] The experiments were terminated and mice sacrificed when the control mice began to die, usually at day 16 post-tumor cell injection.
Each treatment group contained six five- to eight-week old C57BL/6 mice. Treatment was initiated four days after subcutaneous injection of 1×10^6 B16F10 melanoma cells. The mice received one IP injection each day of saline, TSR2, TSR2+RFK or TSR2+QFK (SEQ ID NO: 23). A soluble form of the TGFβ receptor (100 μg/mouse/injection) (Smith, J. D. et al., Circulation Research 84:1212–1222, 1999) was included in the saline or TSR2+RFK injections on treatment day 1 and 7 for two additional experimental groups. The recombinant TSR-containing proteins were used at 1.0 mg/kg/day.
Each treatment group contained six five- to eight-week old C57BL/6 mice. Treatment was initiated four days after subcutaneous injections of 1×10^6 B16F10 melanoma cells. The mice received one IP injection each day, of saline, all three type 1 repeats of human TSP-1 [3TSR (TSP1) in FIG. 9] or all three type 1 repeats of mouse TSP-2 [3TSR (TSP2) in FIG. 9]. Recombinant proteins were used at a dose of 2.5 mg/kg/day.

Lewis lung carcinoma = experiment: Primary tumor growth assay, Lewis lung carcinoma; type: in vivo, C57BL/6 mice; settings: 2.5 mg/kg/day IP daily, treatment day 12
Experimental: as §1, with “The proteins for injection were mixed with Polymyxin B-Agarose (Sigma) for 30 minutes at room temperature to remove endotoxin. The endotoxin levels were less than 0.05 EU/mg as determined using the QCL-1000 assay kit (Biowhittaker, Walkersville, Md.). Proteins were filter-sterilized and the protein concentration was determined prior to injection. Five” for “Five”

B16F10 tumor cell = B16F10 tumor cell proliferation in vitro; type: cell-based, murine
TGFβ = experiment: Assay for TGFβ activation (MLEC luciferase assay on B16F10 conditioned media); type: cell-based, murine; settings: for level of the active form of TGFβ as % of the total TGFβ: 5 μg/ml protein added, media conditioned by B16F10 melanoma cells, control 6.3%; for activation of TGFβ (in words): culture supernatant from B16F10 cells
Experimental: Human dermal microvessel endothelial cells (HDMEC) were isolated by the procedure of Richard et al., Exp. Cell Res. 240:1-6 (1998). The cells were cultured in Vitrogen precoated dishes, and maintained in EBM (Clonetics Corp, San Diego, Calif.) containing 20% fetal bovine serum (FBS), 1 mg/ml hydrocortisone acetate, 5×10^-5 M dibutyryl-cAMP, 200 U/ml penicillin, 100 U/ml streptomycin, 250 mg/ml amphotericin and 2-5 ng/ml VEGF. Murine melanoma B16F10 and murine Lewis lung carcinoma cells were obtained from the ATCC, and were maintained in Dulbecco's Modified Eagle Media (DMEM) supplemented with 10% FBS, […] penicillin, 50 U/ml streptomycin, and 2 mM glutamine (supplemented DMEM). Mink lung epithelial cells (MLECs-Clone 32) that have been stably transfected with an 800 bp fragment of the plasminogen activator inhibitor-1 (PAI-1) promoter fused to the firefly luciferase reporter gene were kindly provided by Dr. Daniel Rifkin (Abe, M. et al., Anal. Biochem. 216:276-284, 1994). The transfected MLECs were maintained in supplemented DMEM. B16F10 cells (2.5×10^5) were plated in a T25 flask and grown overnight in supplemented DMEM. The cells were rinsed once with 1.0 ml of serum-free DMEM and 2.5 ml of serum-free DMEM containing […] of the TSR, or […] recombinant protein were added. After an overnight incubation, conditioned media was collected and centrifuged at 12,000 rpm for 5 min to remove cellular debris. Undiluted media was used to determine the level of active TGFβ. The level of total TGFβ was determined by incubating the media at 80° C. for 10 min and diluting 1:5 in DMEM. One hundred microliters of conditioned media were added to wells of a 96-well plate containing 3×10^4 MLECs and the plates were incubated overnight. A standard curve was constructed by incubating 7.8 to 250 pg/ml of purified TGFβ with the […].) in DMEM. The media was removed and the cells were washed 3 times with cold PBS prior to the addition of […] of lysis buffer (PharMingen, San Diego, Calif.). Luciferase activity was measured using the Enhanced Luciferase Assay Kit PharMingen).

B16F10 tumors = experiment: Histological examination of B16F10 tumors (anti-CD31, TUNEL, PCNA); type: in vivo, C57BL/6 mice; settings: 1.0 mg/kg/day, twelfth treatment day; for decrease in number of proliferating tumor cells: PCNA positive cells; for increase in tumor cell apoptosis: TUNEL; for reduction in capillary density: anti-CD31
Experimental: The tumor tissues were cut, fixed with neutral buffered formaldehyde, and embedded in paraffin according to standard histological procedures. Hematoxylin and eosin staining was employed for tissue morphology examination. Blood vessels were immunochemically stained by anti-CD31 antibody with a Vectastain ABC kit (Vector Laboratories, Burlingame, Calif.). Tumor cell apoptosis was detected by TUNEL assay (Abe, M. et al., Anal. Biochem, 216:276–84, 1994). The number of blood vessels was recorded by counting ten high-power fields. Tumor cell proliferation and the apoptotic index were estimated by the percentage of cells scored under a light microscope. A minimum of 1,000 cells was counted in each tumor sample. To better understand the effect of the recombinant protein treatment on tumor growth, we have determined the rate of proliferation, the apoptotic index and the capillary density for tumors in the saline control group, mice treated with the TSR2+RFK protein or mice treated with the TSR2 protein at an intermediate dose (1.0 mg/kg/day) where the largest effect of inclusion of the RFK sequence is observed. Tumors were removed and fixed on the twelfth treatment day. Capillaries were visualized with anti-CD31 antibody and apoptotic cells were identified by TUNEL. […] The number of proliferating cells was decreased by 35% by treatment with the TSR2+RFK protein (p<0.005), while treatment with the TSR2 protein reduced tumor cell proliferation by 7.8% (p<0.05) (FIG. 6C).

## 3TSR: recombinant protein containing all three TSRs of human TSP-1, amino acids 361–530
[1]
  concentration maximally effective in inhibiting endothelial cell migration: 10 ng/mL
B16F10 melanoma; 0.25 mg/kg/day IP daily
  B16F10 tumor growth inhibition (in words): less effective
B16F10 melanoma; 2.5 mg/kg/day IP daily
  inhibition of B16F10 tumor growth (tumor volume): 81%
B16F10 melanoma; 10 mg/kg/day
  B16F10 tumor growth inhibition (in words): remains maximally active
B16F10 melanoma; dosages of 1.0 mg/kg/day and greater
  B16F10 tumor growth inhibition compared with TSP-1 (in words): more effective than TSP-1
Lewis lung carcinoma
  inhibition of Lewis lung carcinoma tumor growth: 73%

## TGFβ [reference compound]
B16F10 tumor cell
  B16F10 tumor cell proliferation in vitro (in words): inhibit

## TSP-1: Human TSP-1 purified from the supernatant of thrombin-treated platelets
[1]; biphasic response, concentrations above this level are less effective
  concentration up to which inhibition of endothelial cell migration is dose-dependent: 100 ng/mL
B16F10 melanoma; 0.25 mg/kg/day (0.6 nmoles/kg/day) injection
  reduction of tumor growth: 56%
B16F10 melanoma; 2.5 mg/kg/day IP daily
  B16F10 tumor growth inhibition (in words): no effect
B16F10 melanoma; systemic injection, 0.25 mg/ml as printed, twelfth treatment day
  inhibition of tumor growth: 56%

## TSR2+QFK: recombinant version of the TSR2+RFK protein in which Q is substituted for R (arginine 413 to glutamine)
B16F10 melanoma; 1.0 mg/kg/day IP daily, FIG. 8
  B16F10 tumor growth inhibition (in words): less effective as an inhibitor of tumor growth than TSR2+RFK

## TSR2: recombinant protein that contains the second TSR of human TSP-1, amino acids 416–473, excludes DKRFK
TGFβ
  level of the active form of TGFβ as % of the total TGFβ: 4.8%
  activation of TGFβ (in words): does not
[1]
  concentration maximally effective in inhibiting endothelial cell migration: 10 ng/mL
B16F10 melanoma; 0.25 mg/kg/day IP daily
  B16F10 tumor growth inhibition (in words): indistinguishable from the control group
B16F10 melanoma; 1.0 mg/kg/day IP daily
  inhibition of B16F10 tumor growth: 38%
B16F10 melanoma; 2.5 mg/kg/day IP daily
  inhibition of B16F10 tumor growth (tumor volume): 68%
B16F10 tumors
  decrease in number of proliferating tumor cells: 7.8%
  increase in tumor cell apoptosis: 1.9 fold
  reduction in capillary density: 64%

B1: TSR2+RFK: recombinant longer version of the second type 1 repeat of human TSP-1 including the RFK sequence, amino acids 411–473 (protein, listed as Homo sapiens)
chain: DKRFKQDGGWSHWSPWSSCSVTCGDGVITRIRLCNSPSPQMNGKPCEGEARETKACKKDACPI
TGFβ
  level of the active form of TGFβ as % of the total TGFβ: 30%
  activation of TGFβ (in words): activates TGFβ
[1]
  concentration maximally effective in inhibiting endothelial cell migration: 10 ng/mL
B16F10 melanoma; 1.0 mg/kg/day IP daily
  inhibition of B16F10 tumor growth: 80%
B16F10 melanoma; 2.5 mg/kg/day IP daily
  inhibition of B16F10 tumor growth (tumor volume): 86%
Lewis lung carcinoma
  inhibition of Lewis lung carcinoma tumor growth: 77%
B16F10 tumors
  decrease in number of proliferating tumor cells: 35%
  increase in tumor cell apoptosis: 4 fold
  reduction in capillary density: 71%
B16F10 tumor cell
  B16F10 tumor cell proliferation in vitro (in words): inhibit

B2: 3TSR (TSP2): recombinant protein with all three TSRs of mouse TSP-2, amino acids Asp 381 through Ile 550 (protein, listed as Mus musculus)
chain: DEGWSPWAEWTECSVTCGSGTQQRGRSCDVTSNTCLGPSIQTRTCSLGKCDTRIRQNGGWSHWSPWSSCSVTCGVGNVTRIRLCNSPVPQMGGKNCKGSGRETKPCQRDPCPIDGRWSPWSPWSACTVTCAGGIRERSRVCNSPEPQYGGKDCVGDVTEHQMCNKRSCPI
B16F10 melanoma; 2.5 mg/kg/day IP daily
  B16F10 tumor growth inhibition (in words): significantly less potent
